The values that follow come from publication PMC9854712 (Antioxidants, 2023).

Experiment [1] has as its system HTB-54 cells. Also on record: method as in PMID 36257283. Particulars: parent NSAIDs; cited from earlier work.
Experiment [2] has as its system HT-29 cells. Particulars: parent NSAIDs; cited from earlier work.
The subject of experiment [3] is MCF-7 cells. The arrangement: method as in PMID 36257283. Conditions: parent NSAIDs; cited from earlier work.
Experiment [4] concerns the target T1, AChE (Rattus norvegicus, UniProt P37136).
T1 construct: from tissue; host or cells: frontal cortex of male Wistar rats (crude homogenate)
T1 sequence (P37136 32-614): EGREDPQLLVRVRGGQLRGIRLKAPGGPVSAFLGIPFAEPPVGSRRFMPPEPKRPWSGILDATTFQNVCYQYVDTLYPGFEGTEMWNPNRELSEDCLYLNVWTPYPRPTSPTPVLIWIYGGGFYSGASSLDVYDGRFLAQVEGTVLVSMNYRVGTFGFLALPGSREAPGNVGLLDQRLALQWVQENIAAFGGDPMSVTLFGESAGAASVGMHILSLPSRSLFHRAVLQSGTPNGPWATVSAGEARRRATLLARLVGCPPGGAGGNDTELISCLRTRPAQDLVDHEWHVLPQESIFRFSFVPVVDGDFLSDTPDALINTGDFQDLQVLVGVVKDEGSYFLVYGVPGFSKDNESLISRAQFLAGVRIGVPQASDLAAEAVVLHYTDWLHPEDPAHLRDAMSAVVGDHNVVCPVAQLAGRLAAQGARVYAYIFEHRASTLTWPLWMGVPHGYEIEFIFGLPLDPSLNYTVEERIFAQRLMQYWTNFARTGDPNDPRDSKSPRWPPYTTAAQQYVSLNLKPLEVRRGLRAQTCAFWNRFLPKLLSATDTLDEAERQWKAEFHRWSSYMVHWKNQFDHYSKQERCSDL
Put plainly: AChE inhibition by Ellman's method (rat frontal cortex homogenate). The experiment is classed as biochemical. Particulars: at 10^−6 M, Ellman's method. As to the method:
Frontal cortex tissue obtained from male Wistar rats was homogenized in 39 volumes of 75 mM sodium phosphate buffer (pH 7.4). A mixture of 260 μL containing the compounds assessed, acetylthiocholine iodide and 5 μL tissue homogenate was incubated for 8 min. The reaction was then terminated by adding 50 μL 3% (w/v) sodium dodecyl sulphate followed by 50 μL 0.2% (w/v) 5,5′-dithio-bis(2-nitrobenzoic) acid to produce the yellow anion of 5-thio-2-nitro-benzoic-acid. The extent of the color production was measured spectrophotometrically at 405 nm using Multiskan Ex (Thermo Electron Corporation). […] Results are expressed as the mean ± SD and each experiment was repeated three times.
Background: Ellman's reagent forms a yellow product with free thiols.

The subject of another experiment is MDA-MB-231 cells. The experiment is described as follows: MTT cell viability assay, MDA-MB-231. In kind it is cell-based. Conditions: Homo sapiens, MDA-MB-231, 48 h, read-out: Cell growth % at 10 µM, MDA-MB-231. As to the method: (§1) The cell lines were obtained from the American Type Culture Collection (ATCC). Five tumor cell lines (MDA-MB-231, MCF-7, HCT116, HTB-54, and DU-145) and two non-tumorigenic cells (184B5 and BEAS-2B) were grown in RPMI 1640 medium (Gibco), and the HT-29 tumor cell line was grown in McCoy’s medium. Both mediums were supplemented with 10% fetal bovine serum (FBS; Gibco) and 1% antibiotics (10.00 units/mL penicillin and 10.00 μg/mL streptomycin; Gibco). Cells were preserved in tissue culture flasks at 37 °C and 5% CO2. The culture medium was replaced every three days.
(§2) The effect of each compound on cell viability was tested using the MTT assay. […] Selected compounds were then tested at seven different concentrations (0.5–100 μM) in MCF-7, HCT116, HT-29, HTB-54, 184B5 and BEAS-2B cells. Cells were seeded at 10^4 per well onto flat-bottomed 96-well culture plates. They were treated with either DMSO or increasing concentration of the corresponding compound for 48 h. Then, they were incubated with 20 μL of 3-(4,5-dimethylthiazol-2-yl)-2,5-diphenyltetrazolium bromide (MTT) (2 mg /mL stock; Aldrich) for 2,5 h and analyzed for their ability to generate a purple formazan dye. These formazan crystals were dissolved in 50 μL of DMSO. The absorbance was measured at a wavelength of 550 nm and the ratio of viable cells was calculated.
(§3) Results are expressed as cell viability % at 10 μM. Selectivity index were calculated as the ratio of the IC50 values determined for the non-malignant and the tumor cells in breast (IC50 (184B5)/IC50 (MCF-7)) and lung (IC50 (BEAS-2B)/IC50 (HTB-54)) cell lines. Data were obtained from at least three independent experiments performed in triplicates.
On the technique in general: Formazan colour is commonly taken as a measure of viable cells.

A further experiment relates to 184B5 cells. Put plainly: MTT cell viability assay, 184B5 (non-tumorigenic). The experiment is classed as cell-based. Conditions: Homo sapiens, 48 h, nonmalignant mammary gland. As to the method:
as §1, §2, §3

In another experiment the test system is DU-145 cells. Put plainly: MTT cell viability assay, DU-145. The experiment is classed as cell-based. Particulars: Homo sapiens, DU-145, 48 h, read-out: Cell growth % at 10 µM, DU-145. As to the method:
as §1, §2, §3

A further experiment deals with BEAS-2B cells. The experiment is described as follows: MTT cell viability assay, BEAS-2B (non-tumorigenic). In kind it is cell-based. Conditions: Homo sapiens, 48 h, nonmalignant bronchial epithelium. The procedure:
as §1, §2, §3

Experiment [5] has as its system MCF-7 cells. The experiment is described as follows: MTT cell viability assay, MCF-7. Conditions: for IC50: Homo sapiens, MCF7, MTT, 48 h; for SI (breast): IC50 (184B5)/IC50 (MCF-7). The experiment is classed as cell-based. As to the method: as §1, §2, §3
The subject of a further experiment is HCT116 cells. The experiment is described as follows: MTT cell viability assay, HCT116. Particulars: Homo sapiens, HCT-116, 48 h. In kind it is cell-based. As to the method: as §1, §2, §3
Experiment [6] deals with HTB-54 cells. Put plainly: MTT cell viability assay, HTB-54. In kind it is cell-based. Conditions: for viability at 10 µM / IC50: HTB-54, 48 h, MTT; for viability at 10 µM: read-out: Cell growth % at 10 µM, HTB-54; for SI (lung): IC50 (BEAS-2B)/IC50 (HTB-54). The procedure:
as §1, §2, §3

In experiment [7] the test system is HT-29 cells. Put plainly: MTT cell viability assay, HT-29. Conditions: Homo sapiens; for viability at 10 µM: HT-29, 10 µM, 48 h, read-out: Cell growth % at 10 µM, HT-29; for IC50: HT-29, 48 h. The experiment is classed as cell-based. As to the method: as §1, §2, §3
For experiment [8], the system named is HTB-54, DU-145, HT-29 and MDA-MB-231 cancer cell lines. Put plainly: cells. In kind it is cell-based. Particulars: against the panel of the four cancer cell lines. The procedure:
as §1, §2
As a first approach, all the compounds were tested in vitro against lung (HTB-54), prostatic (DU-145), colon (HT-29), and triple-negative breast (MDA-MB-231) cancer cell lines at two concentrations (50 and 10 µM) for 48 h. Then, the MTT colorimetric assay was used to evaluate cell proliferation after the treatment. The data are expressed as the percentage of cell growth ± SD in at least three independent experiments performed in quadruplicates (Table S1).

Experiment [9] relates to panel of 60 human tumor cell lines. The arrangement: method as in PMID 19549304. Particulars: same cell line panel; cited from earlier work.
In experiment [10] the test system is AChE. The experiment is described as follows: AChE inhibition quoted from the literature. Conditions: AChE IC50 ratio to 14a. The experiment is classed as biochemical.
For experiment [11], the system named is AChE. The arrangement: method as in PMID 25312723. Conditions: cited from earlier work.

Read-outs that look alike come from different tables or passages of the source.

Take `COc1ccc2c(c1)c(CC(=O)O)c(C)n2C(=O)c1ccc(Cl)cc1` [Indomethacin, 2-[1-(4-chlorobenzoyl)-5-methoxy-2-methylindol-3-yl] acetic acid]: the IC50 with HTB-54 cells [1], in the experiment on HT-29 cells [2] and in the experiment on MCF-7 cells [3] was more than 100 µM throughout.
For the molecule `C=CC[Se]C(=O)C(C)c1ccc2cc(OC)ccc2c1` [Compound 16a, Se-allyl (S)-2-(6-methoxynaphtalen-2-yl)propaneselenoate], on AChE [4], at 1 µM the inhibition was 20.3 ± 4.2%. Moreover, the viability at 10 µM was 33.8 ± 5.6% with MDA-MB-231 cells; 18.8 ± 6.3% in the experiment on DU-145 cells; 30.9 ± 6.7% in the experiment with HTB-54 cells [6]; 49.9 ± 5.6% in the experiment with HT-29 cells [7]; less than 55% in experiment [8]. The IC50 came to 11.1 ± 1.1 µM with 184B5 cells; 14.7 ± 8.7 µM in the experiment on BEAS-2B cells; 10.9 ± 1.3 µM in the experiment with MCF-7 cells [5]; 27.1 ± 2.7 µM in the experiment with HCT116 cells; 9.9 ± 0.3 µM in the experiment with HTB-54 cells [6]; 9.4 ± 0.6 µM in the experiment on HT-29 cells [7]. Moreover, in the experiment on MCF-7 cells [5], the “SI (breast)” value turned out to be 1.0. For the same molecule, the “SI (lung)” value in the experiment on HTB-54 cells [6] is on record as 1.5.
As to `O=C1[O][Pt]2([NH][C@@H]3CCCC[C@H]3[NH]2)[O]C1=O` [oxaliplatin], in experiment [9], the GI50 was 2.89 µM.
As to selenepezil, the “fold lower IC50 than compound 14a” value in the experiment with AChE [10] came out at 9 fold. In the experiment with AChE [11], the IC50 is 0.097 µM.
With `C=CC[Se]C(=O)C(C)c1ccc(CC(C)C)cc1` (centres unmarked) [Compound 15a], at AChE [4], testing at 1 µM gave an inhibition of 19.3 ± 0.1%. Besides, the viability at 10 µM with MDA-MB-231 cells is 38 ± 5.4%; in the experiment with DU-145 cells it was 19.1 ± 7%; in the experiment with HTB-54 cells [6], 38 ± 7.1%; in the experiment with HT-29 cells [7], 49 ± 7.2%; in experiment [8] it was less than 55%. Besides, the half-inhibitory concentration (IC50) in the experiment on 184B5 cells came out at 11.5 ± 1.4 µM; in the experiment with BEAS-2B cells it was 11.1 ± 2.6 µM; with MCF-7 cells [5], 11.2 ± 0.2 µM; in the experiment with HCT116 cells, 10.2 ± 0.1 µM; in the experiment on HTB-54 cells [6], 23.5 ± 5.8 µM; in the experiment with HT-29 cells [7], 9.2 ± 0.7 µM. The “SI (breast)” value with MCF-7 cells [5] is 1.1. For the same molecule, the “SI (lung)” value with HTB-54 cells [6] was 0.5.
As to `O=c1[nH]cc(F)c(=O)[nH]1` [5-fluorouracil], the GI50 in [9] is 57.5 µM.
As for `CC(=O)Oc1ccccc1C(=O)O` [ASA], the IC50 with HTB-54 cells [1], in the experiment on HT-29 cells [2] and with MCF-7 cells [3] was more than 100 µM in each case.
For `O=c1c2ccccc2[se]n1-c1ccccc1` [Ebselen, ebselen], in the experiment with AChE [10], the “fold higher IC50 than compound 14a” value is reported as 32 fold. Also, in the experiment with AChE [11], the IC50 is 29 µM.
With `COc1ccc2cc([C@H](C)C(=O)O)ccc2c1` [Naproxen, (2S)-2-(6-methoxynaphtalen-2-yl) propanoic acid], the IC50 with HTB-54 cells [1], in the experiment with HT-29 cells [2] and in the experiment with MCF-7 cells [3] was more than 100 µM each time.
As for `COc1cc2ncnc(Nc3ccc(F)c(Cl)c3)c2cc1OCCCN1CCOCC1` [gefitinib], the GI50 in experiment [9] is 3.24 µM.

One may read the IC50 as the midpoint of a concentration-inhibition curve. As usually defined, the inhibition is the change of the read-out against control, counted positive when it falls. The low end stands for a response near the control, the high end for a response far below the control. As usually defined, the GI50 is the concentration giving 50% growth inhibition.
